These results are taken from article PMC5706701, “Development of a homogenous high-throughput assay for inositol hexakisphosphate kinase 1 activity” (PLoS ONE, 2017).

Counter-ions that a name gives are not always drawn. Like-named read-outs stand apart in the source and are kept apart here.

The target of this assay is T1, Human IP6K1 (Homo sapiens, UniProt Q92551).
T1 construct: GST (N, cleaved yes); made in house; host or cells: C43 E. coli, pGEX-6P-2
Nature of the assay: IP6K1 high-throughput screen of the Sigma LOPAC (ADP-Glo Max, single point).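 Also: final compound concentration 10µM in 5% DMSO.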 In kind it is biochemical. On the technique in general: In ADP-Glo the light output rises with the ADP produced.

The mark [1] stands for this setting: LOPAC single-point screen, ADP-Glo Max raw signal per well.
Where [2] appears, read: LOPAC single-point screen, Z-score from raw signal with plate average and StDev.
The mark [3] stands for this setting: Sigma LOPAC single-point screen, ADP-Glo Max raw signal per well.
The mark [4] stands for this setting: Sigma LOPAC single-point screen, Z-score from plate average and StDev.
[5] abbreviates: LOPAC single-point screen, ADP-Glo Max luminescence raw signal per well.
[6] abbreviates: LOPAC single-point screen, Z-score relative to plate average and StDev.
[7] abbreviates: LOPAC single-point screen, Z-score against plate average and StDev.

T1 sequence (Q92551 whole entry): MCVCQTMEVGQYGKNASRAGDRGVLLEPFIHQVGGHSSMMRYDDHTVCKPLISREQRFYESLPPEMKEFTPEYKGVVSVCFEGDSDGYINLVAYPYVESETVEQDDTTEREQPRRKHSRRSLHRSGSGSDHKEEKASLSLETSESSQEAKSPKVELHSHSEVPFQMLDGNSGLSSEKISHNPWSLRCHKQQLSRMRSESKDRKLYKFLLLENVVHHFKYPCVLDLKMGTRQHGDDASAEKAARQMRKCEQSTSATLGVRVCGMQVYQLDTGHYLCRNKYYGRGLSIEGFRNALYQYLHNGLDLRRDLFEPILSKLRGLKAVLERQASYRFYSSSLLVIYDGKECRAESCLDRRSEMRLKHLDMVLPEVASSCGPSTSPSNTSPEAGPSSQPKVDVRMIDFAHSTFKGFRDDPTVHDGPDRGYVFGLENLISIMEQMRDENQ

Take `CN1C[C@H](O)[C@@H](O)[C@H](O)[C@H]1CO` [N-Methyl-1-deoxynojirimycin]: the “Raw Signal” value under setting [1] was determined as 53171. Besides, the Z-score under setting [2] is listed as -0.2054.
As to `CN[C@H](CC(=O)O)C(=O)O` [N-Methyl-D-aspartic acid], the “Raw Signal” value under setting [3] is reported as 57133. For the same molecule, under setting [4], the Z-score is 0.4603.
As to `CNC(=O)c1cc2c(cn1)[nH]c1ccccc12` [N-Methyl-beta-carboline-3-carboxamide], under setting [3], the “Raw Signal” value is 57600. The Z-score under setting [4] was found to be 0.4941.
For `CNCCc1ccc(O)c(O)c1.Cl` [N-Methyldopamine hydrochloride], the “Raw Signal” value under setting [5] is given as 45936. The molecule further registered a Z-score under setting [6] of -1.875.
The matching figures for `CCCCCCCC/C=C\CCCCCCCC(=O)NCCc1ccc(O)c(O)c1` [N-Oleoyldopamine]: 53486 and -0.493.
Consider `CCCCCCCC/C=C\CCCCCCCC(=O)NCCO` [N-Oleoylethanolamine], for which, under setting [1], the “Raw Signal” value is 53081. Under setting [2], the Z-score is -0.2205.
As for `O=C(O)c1ccccc1Nc1ccccc1` [N-Phenylanthranilic acid], the “Raw Signal” value under setting [3] is listed as 63268. Besides, under setting [4], the Z-score worked out at 0.9431.
For `O=C(O)CCC(=O)N1CCC[C@H]1C(=O)O` [N-Succinyl-L-proline], the “Raw Signal” value under setting [1] stood at 55499. This molecule gave a Z-score under setting [2] of -0.102.
In the case of `CCCCC/C=C\C/C=C\C/C=C\C/C=C\CCCC(=O)NCC(=O)O` [N-arachidonylglycine], the “Raw Signal” value under setting [1] is reported as 55672. Under setting [2], this molecule had a Z-score of -0.3947.
Take `NC(=O)C1=CN([C@@H]2O[C@H](COP(=O)([O-])OP(=O)([O-])OC[C@H]3O[C@@H](n4cnc5c(N)ncnc54)[C@H](OP(=O)([O-])[O-])[C@@H]3O)[C@@H](O)[C@H]2O)C=CC1.[Na+].[Na+].[Na+].[Na+]` [NADPH tetrasodium]: the “Raw Signal” value under setting [3] is reported as 57869. Further, under setting [4], the Z-score is 0.584.
Take `Br.COc1ccccc1N1CCN(CCCCN2C(=O)c3ccccc3C2=O)CC1` [NAN-190 hydrobromide]: the “Raw Signal” value under setting [3] was 61226. Also, the Z-score under setting [4] stood at 1.148.
With `CCCN(CC1CC1)c1nc(C)nc(Nc2c(Cl)cc(Cl)cc2Cl)c1Cl` [NBI 27914], under setting [5], the “Raw Signal” value came out at 52610. This molecule returned a Z-score under setting [6] of -0.5193.
As for `NS(=O)(=O)c1cccc2c1c([N+](=O)[O-])cc1nc([O-])c([O-])nc12.[Na+].[Na+]` [NBQX disodium], the “Raw Signal” value under setting [1] is 52080. Under setting [2], this molecule registered a Z-score of -0.3887.
Turning to `O=C([O-])/C=C/C(O)c1ccc(Cl)cc1.[Na+]` (centres unmarked) [NCS-356], the “Raw Signal” value under setting [3] amounted to 58969. Also, the Z-score under setting [4] was 0.7688.
Consider `O=C(O)/C=C1\CCCc2ccccc2C1O` (centres unmarked) [NCS-382], for which the “Raw Signal” value under setting [5] is reported as 49943. The molecule further showed a Z-score under setting [6] of -0.7478.
On to `O=C(Nc1cc(C(=O)Nc2ccc(S(=O)(=O)[O-])cc2S(=O)(=O)[O-])cc(C(=O)Nc2ccc(S(=O)(=O)[O-])cc2S(=O)(=O)[O-])c1)Nc1cc(C(=O)Nc2ccc(S(=O)(=O)[O-])cc2S(=O)(=O)[O-])cc(C(=O)Nc2ccc(S(=O)(=O)[O-])cc2S(=O)(=O)[O-])c1.[Na+].[Na+].[Na+].[Na+].[Na+].[Na+].[Na+].[Na+]` [NF449 octasodium salt], for which the “Raw Signal” value under setting [5] came out at 9787. This molecule also had a Z-score under setting [6] of -7.495.
With `O=C(Nc1cccc(C(=O)Nc2ccc(S(=O)(=O)O)c3cc(S(=O)(=O)O)cc(S(=O)(=O)O)c23)c1)Nc1cccc(C(=O)Nc2ccc(S(=O)(=O)O)c3cc(S(=O)(=O)O)cc(S(=O)(=O)O)c23)c1` [NF 023], the “Raw Signal” value under setting [5] is 39481. Besides, the Z-score under setting [6] is -2.506.
`CC(=O)O.NC(=NCCC[C@H](N)C(=O)O)NO` [NG-Hydroxy-L-arginine acetate]: the “Raw Signal” value under setting [1] was 53960. The Z-score under setting [2] is on record as -0.2451.
In the case of `[H]/N=C(/NC)NCCC[C@H](N)C(=O)O` [NG-Monomethyl-L-arginine acetate], under setting [5], the “Raw Signal” value turned out to be 51513. The same molecule registered a Z-score under setting [6] of -0.484.
Take `N=C(NCCC[C@H](N)C(=O)O)N[N+](=O)[O-]` [NG-Nitro-L-arginine]: under setting [3], the “Raw Signal” value was 57372. Under setting [4], this molecule returned a Z-score of 0.5005.
As to `Cl.O=C(O)C1=CCCN(CCON=C(c2ccccc2)c2ccccc2)C1` [NO-711 hydrochloride], under setting [3], the “Raw Signal” value is given as 58704. Under setting [4], this molecule yielded a Z-score of 0.7243.
Turning to `O=c1onc2n1-c1cc(Br)ccc1OC2` [NS 2028], the “Raw Signal” value under setting [1] amounted to 54790. This molecule gave a Z-score under setting [7] of 0.06662.
Regarding `O=c1[nH]c2cc(C(F)(F)F)ccc2n1-c1cc(C(F)(F)F)ccc1O` [NS-1619], under setting [5], the “Raw Signal” value is reported as 51434. Further, the Z-score under setting [6] is -0.4973.
Consider `O=C1C(SCCO)=C(SCCO)C(=O)c2ccccc21` [NSC 95397], for which the “Raw Signal” value under setting [1] is recorded as 55516. The molecule further had a Z-score under setting [7] of 0.07087.
`CN(C)C(N)=NCCC[C@H](N)C(=O)O.Cl` [N^G,N^G-Dimethylarginine hydrochloride]: the “Raw Signal” value under setting [1] is reported as 52909. The same molecule registered a Z-score under setting [2] of -0.4586.
With `COc1ccccc1N1CCN(CC(O)COc2cccc3ccccc23)CC1.Cl.Cl` (centres unmarked) [Naftopidil dihydrochloride], the “Raw Signal” value under setting [3] is given as 57488. Besides, the Z-score under setting [4] came out at 0.52.
`Oc1ccc2c3c1O[C@H]1[C@@H](O)CC[C@@]4(O)[C@@H](C2)N(CC2CCC2)CC[C@]314` [Nalbuphine hydrochloride]: the “Raw Signal” value was determined as 53889 and the Z-score is listed as -0.08477.
In the case of `CCn1cc(C(=O)[O-])c(=O)c2ccc(C)nc21.[Na+]` [Nalidixic acid sodium], the “Raw Signal” value under setting [5] worked out at 49665. The molecule also had a Z-score under setting [6] of -0.7945.
In the case of `C=CCN1CC[C@]23c4c5ccc(O)c4O[C@@H]2/C(=N/N=C2\CC[C@@]4(O)C6Cc7ccc(O)c8c7[C@@]4(CCN6CC=C)[C@@H]2O8)CC[C@@]3(O)C1C5.Cl.Cl` [Naloxonazine dihydrochloride], under setting [5], the “Raw Signal” value came to 51290. Under setting [6], this molecule had a Z-score of -0.5215.
Take `C=CCN1CC[C@]23c4c5ccc(O)c4O[C@H]2/C(=N/NC(=O)c2ccccc2)CC[C@@]3(O)[C@H]1C5` [Naloxone benzoylhydrazone]: under setting [3], the “Raw Signal” value amounted to 57821. This molecule returned a Z-score under setting [4] of 0.5759.
`C=CCN1CC[C@]23c4c5ccc(O)c4O[C@H]2C(=O)CC[C@@]3(O)[C@H]1C5` [Naloxone hydrochloride]: the “Raw Signal” value under setting [1] amounted to 55041. This molecule returned a Z-score under setting [7] of 0.1088.
Turning to `O=C1CC[C@@]2(O)[C@H]3Cc4ccc(O)c5c4[C@@]2(CCN3CC2CC2)[C@H]1O5` [Naltrexone hydrochloride], the “Raw Signal” value under setting [1] came out at 52231. Under setting [2], the Z-score was -0.3634.
For the molecule `Oc1ccc2c3c1O[C@H]1c4oc5ccccc5c4C[C@@]4(O)[C@@H](C2)N(CC2CC2)CC[C@]314` [Naltriben methanesulfonate], the “Raw Signal” value under setting [1] worked out at 55337. Further, the Z-score under setting [7] is 0.1585.
`Oc1ccc2c3c1O[C@H]1c4[nH]c5ccccc5c4C[C@@]4(O)[C@@H](C2)N(CC2CC2)CC[C@]314` [Naltrindole hydrochloride]: the “Raw Signal” value under setting [1] turned out to be 53741. Further, under setting [2], the Z-score is listed as -0.1096.
The matching figures for `c1ccc2c(CC3=NCCN3)cccc2c1` [Naphazoline hydrochloride]: 52798 and -0.2681.
As for `CN(C)C(=O)Oc1cccc([N+](C)(C)C)c1` [Neostigmine bromide], the “Raw Signal” value under setting [1] came to 55937. In addition, under setting [7], the Z-score is on record as 0.2593.
In the case of `O=C(CCNNC(=O)c1ccncc1)NCc1ccccc1` [Nialamide], under setting [1], the “Raw Signal” value is listed as 52793. Under setting [2], this molecule displayed a Z-score of -0.2689.
Regarding `COC(=O)C1=C(C)NC(C)=C(C(=O)OCCN(C)Cc2ccccc2)C1c1cccc([N+](=O)[O-])c1` (centres unmarked) [Nicardipine hydrochloride], under setting [5], the “Raw Signal” value was 66364. In addition, the Z-score (LOPAC single-point screen, Z-score from plate average and StDev) is reported as 2.011.
In the case of `O=C(Nc1ccc([N+](=O)[O-])cc1Cl)c1cc(Cl)ccc1O` [Niclosamide], the “Raw Signal” value under setting [1] turned out to be 53914. Besides, under setting [7], the Z-score was -0.08057.
`COC(=O)C1=C(C)NC(C)=C(C(=O)OC)C1c1ccccc1[N+](=O)[O-]` [Nifedipine]: the “Raw Signal” value under setting [3] is 59653. Under setting [4], the Z-score is on record as 0.8837.
On to `O=C(O)c1cccnc1Nc1cccc(C(F)(F)F)c1` [Niflumic acid], for which the “Raw Signal” value under setting [5] turned out to be 47033. The Z-score under setting [6] is -1.237.
Take `CC1(C)NC(=O)N(c2ccc([N+](=O)[O-])c(C(F)(F)F)c2)C1=O` [Nilutamide]: the “Raw Signal” value under setting [3] is 62066. This molecule came in with a Z-score under setting [4] of 1.289.
For the molecule `CS(=O)(=O)Nc1ccc([N+](=O)[O-])cc1Oc1ccccc1` [Nimesulide], the “Raw Signal” value under setting [1] amounted to 51877. For the same molecule, the Z-score under setting [2] is reported as -0.4228.
As to `COCCOC(=O)C1=C(C)NC(C)=C(C(=O)OC(C)C)C1c1cccc([N+](=O)[O-])c1` (centres unmarked) [Nimodipine], the “Raw Signal” value under setting [1] stood at 55940. Under setting [7], this molecule displayed a Z-score of 0.2599.
For the molecule `Cc1ncc(CNC(=O)N(CCCl)N=O)c(N)n1` [Nimustine hydrochloride], the “Raw Signal” value under setting [1] was found to be 54692. Further, the Z-score under setting [7] is recorded as 0.05015.
Consider `CNCCC(Oc1ccccc1OC)c1ccccc1` (centres unmarked) [Nisoxetine hydrochloride], for which the “Raw Signal” value amounted to 55675 and the Z-score came out at 0.2153.
Consider `CCOC(=O)C1=C(C)NC(C)=C(C(=O)OC)C1c1cccc([N+](=O)[O-])c1` (centres unmarked) [Nitrendipine], for which, under setting [3], the “Raw Signal” value was determined as 58110. For the same molecule, the Z-score under setting [4] is on record as 0.6245.
The matching figures for `COC(=O)Nc1nc2ccc(C(=O)c3cccs3)cc2[nH]1` [Nocodazole]: 59128 and 0.7955.
Take `CN1Cc2c(N)cccc2C(c2ccccc2)C1` (centres unmarked) [Nomifensine maleate]: the “Raw Signal” value under setting [1] worked out at 56397. The Z-score under setting [7] stood at 0.3366.
